Source: patent publication US20100247642A1, “STABLE PHARMACEUTICAL FORMULATION FOR A DPP-IV INHIBITOR” (Phenomix Corporation, priority 2007, published 2010)

Assay: Excipient compatibility: stability of binary mixture of API plus excipient, purity by HPLC
Type: physicochemical
Procedure: A comparison of the stability of the API of the current invention was made, using excipients well-known in the art. […] Compound purity was determined by HPLC. The mixture of the API and the calcium phosphate was allowed to stand under the specified conditions for the stated times. Results are given as percent purity of the API at the given time point. […] Again, the mixture of the API and the microcrystalline cellulose was allowed to stand under the specified conditions for the stated times. Results are given as percent purity of the API at the given time point.

- % API (percent purity of the API) (binary mixture with dibasic calcium phosphate, 2 weeks/loose cap): 77.0%
- % API (percent purity of the API) (binary mixture with dibasic calcium phosphate, 2 weeks/tight cap): 77.2%
- % API (percent purity of the API) (binary mixture with dibasic calcium phosphate, 4 weeks/tight cap): 71.7%
- drop in API purity (binary mixture with dibasic calcium phosphate, within two weeks, regardless of exposure to atmosphere): over 10%
- % API (percent purity of the API) (binary mixture with microcrystalline cellulose, 2 weeks/loose cap): 82.1%
- % API (percent purity of the API) (binary mixture with microcrystalline cellulose, 4 weeks/tight cap): 90.2%
- storage stability of the API in the presence of calcium phosphate (presence of calcium phosphate): massive decomposition
Structure (SMILES): O=C(CNC1CCNC1)N1CCCC1B(O)O (stereo not shown) [API, pyrrolidin-3-yl-glycyl-boro-proline]
